# Test system: liver, kidney and lung
# Test: histopathological examination of tissue after administration of SH045
# Assay type: in vivo, mice
# Settings: 20 mg/kg BW i.v., single and repeated (5 days); hematoxylin-eosin
# Text: Liver, kidney, and lung were collected after repeated administration, fixed and processed for inspection for histopathological alterations (Supplementary Materials SM3).
# Larixyl-N-methylcarbamate ((1S,4S,4aR,8aS)-4-((S)-3-hydroxy-3-methylpent-4-en-1-yl)-4a,8,8-trimethyl-3-methylenedeca-hydro-naphthalen-1-yl methylcarbamate, SH045, TRPC6 inhibitor) was synthesized as described by Häfner et al. [1]. (+)-Larixol (internal standard, IS) was isolated from Larix decidua turpentine [2]. Kolliphor® EL was obtained from Caelo (Hilden, Germany). Acetonitrile (ACN), water, and formic acid (LC -MS grade each) were purchased from Fisher Scientific (Schwerte, Germany). […]
# SM2 Quantification of SH045 by HPLC and tandem mass spectrometric methods (LC-MS/MS) In brief, chromatographic separation was achieved using a Zorbax Eclipse XDB-C8 column (100 × 3.0 mm, 3.5 μm 80 Å, Agilent Technologies) with linear gradient elution using water and ACN, each with 0.1 % formic acid as additive, during a total run time of 20 min. For quantification (+)-larixol was used as IS. […] Freshly prepared calibration samples for SH045 in plasma and tissue comprised eight concentration levels analyzed in duplicates (2, 5, 10, 100, 200, 800, 1200 and 1600 ng/mL). […]
structure (smiles),measurement,value
"C=C[C@@](C)(O)CC[C@H]1C(=C)C[C@H](OC(=O)NC)[C@H]2C(C)(C)CCC[C@]12C [SH045, (1S,4S,4aR,8aS)-4-((S)-3-Hydroxy-3-methylpent-4-en-1-yl)-4a,8,8-trimethyl-3-methylenedecahydronaphthalen-1-yl methylcarbamate]","histopathological changes in liver, kidney and lung",no histopathological changes were observed

# Reference: article PMC8998618, “A Pharmacokinetic and Metabolism Study of the TRPC6 Inhibitor SH045 in Mice by LC-MS/MS” (International Journal of Molecular Sciences, 2022)
